Measurements: publication PMC10975527 (Viruses, 2024)
Read-outs that look alike come from different tables or passages of the source.

Key:
Beagle dogs = experiment: 13-week repeat-dose toxicity study in dogs; format: in vivo; design: key to Testis: Degeneration/Atrophy, Minimal, incidence / Testis: Degeneration/Atrophy, Mild, incidence / Testis: Degeneration/Atrophy, Moderate, incidence / Epididymis: Cellular debris, Minimal, incidence / Epididymis: Cellular debris, Mild, incidence / Epididymis: Cellularity, decreased; sperm, Minimal, incidence / Epididymis: Cellularity, decreased; sperm, Mild, incidence / Epididymis: Cellularity, decreased; sperm, Marked, incidence: - = no AB-161-related findings
IAV = experiment: microbe, parasite or virus in culture; format: cell-based; details: Influenza A virus, MDBK, in Bos taurus, read-out: EC50 (IAV)
HBV [1] = experiment: HBV life cycle analysis in HepG2.2.15 cells; format: cell-based, hepatitis B virus; details: ETV 1 μM, GLS4 1 μM, AB-161 100 nM
[2] = test system: HBsAg with SLα deletion mutant (ΔSLα) PRE; experiment: HBV PRE variant phenotyping in Huh-7: ΔSLα plasmid (HBsAg); format: cell-based; details: Hepatitis B virus, Huh-7, 120 h, read-out: HBsAg EC50
in vitro = details: hamster
Sprague Dawley rats = experiment: 13-week repeat-dose toxicity study in rats; format: in vivo
HBV [3] = experiment: HBV antiviral assay in HepG2.2.15 cells (HBsAg/HBeAg CLIA, secreted HBV DNA PCR); format: cell-based; details: Hepatitis B virus, HepG2.2.15, genotype D
HBV genotypes A–H = experiment: HBV genotype coverage in HBV transfected Huh-7 cells (HBsAg); details: Hepatitis B virus
[4] = test system: HBsAg with wildtype HBV PRE; experiment: HBV PRE variant phenotyping in Huh-7: wild-type PRE plasmid (HBsAg); format: cell-based; details: Hepatitis B virus, Huh-7, 120 h, read-out: HBsAg EC50
RSV = experiment: Antiviral selectivity panel: RSV; format: cell-based; details: human respiratory syncytial virus, HEp-2; HEp2 (human epithelial)
HCMV = experiment: Antiviral selectivity panel: HCMV; format: cell-based, human cytomegalovirus; details: Human betaherpesvirus 5, MRC5; MRC-5 (human lung)
[5] = male dogs, 10 mg/kg/day, end of main study (days 97–100)
[6] = male dogs, 10 mg/kg/day, end of main study, 4 examined
[7] = male dogs, 30 mg/kg/day, end of main study (days 97–100)
[8] = male dogs, 30 mg/kg/day, end of main study, 3 examined
[9] = male dogs, 100 mg/kg/day, end of main study (days 97–100)
[10] = male dogs, 100 mg/kg/day, end of main study, 4 examined
[11] = male dogs, 100 mg/kg/day, end of recovery (Day 120)
[12] = male dogs, 100 mg/kg/day, end of recovery (Day 120), 2 examined

## COc1cc(OC(F)F)c2nc3c(n2c1)C[C@@H](C(C)(C)C)c1cc(C(=O)O)c(=O)[nH]c1-3 [AB-161]
Beagle dogs; dogs
  motor nerve conduction: No differences from baseline or time-matched controls
Beagle dogs; dogs, 100 mg/kg/day recovery cohort, day 119
  animals with persisting peroneal sensory NCV delays: 2 of 4
Beagle dogs; dogs, 100 mg/kg/day, days 71 to 72
  animals with peroneal sensory NCV delays: 4 of 12
Beagle dogs; dogs, 10, 30, or 100 mg/kg/day
  food consumption, electrocardiography, neurological examinations, urinalysis: no AB-161-related effects
Beagle dogs; female dogs, 13-week administration, all doses
  reproductive safety findings: no reproductive safety findings
Beagle dogs; male dogs, 10 mg/kg/day, end of main study (day 97–100), 4 examined
  Testis: Degeneration/Atrophy, incidence: 0
Beagle dogs; [5]
  Testis weight, % of body weight: −9.38 percent difference from the control group means
  Testis weight, % of brain weight: −16.13 percent difference from the control group means
  Testis weight, absolute value: −18.03 percent difference from the control group means
Beagle dogs; [6]
  Epididymis: Cellular debris, Mild, incidence: -
  Epididymis: Cellular debris, Minimal, incidence: -
  Epididymis: Cellular debris, incidence: 0
  Epididymis: Cellularity, decreased; sperm, Marked, incidence: -
  Epididymis: Cellularity, decreased; sperm, Mild, incidence: -
  Epididymis: Cellularity, decreased; sperm, Minimal, incidence: -
  Epididymis: Cellularity, decreased; sperm, incidence: 0
  Testis: Degeneration/Atrophy, Mild, incidence: -
  Testis: Degeneration/Atrophy, Minimal, incidence: -
  Testis: Degeneration/Atrophy, Moderate, incidence: -
Beagle dogs; [7]
  Testis weight, % of body weight: −21.93 percent difference from the control group means
  Testis weight, % of brain weight: −30.73 percent difference from the control group means
  Testis weight, absolute value: −34.17 percent difference from the control group means
Beagle dogs; [8]
  Epididymis: Cellular debris, Mild, incidence: 2
  Epididymis: Cellular debris, Minimal, incidence: 0
  Epididymis: Cellular debris, incidence: 2
  Epididymis: Cellularity, decreased; sperm, Marked, incidence: 0
  Epididymis: Cellularity, decreased; sperm, Mild, incidence: 2
  Epididymis: Cellularity, decreased; sperm, Minimal, incidence: 0
  Epididymis: Cellularity, decreased; sperm, incidence: 2
  Testis: Degeneration/Atrophy, Mild, incidence: 1
  Testis: Degeneration/Atrophy, Minimal, incidence: 1
  Testis: Degeneration/Atrophy, Moderate, incidence: 0
  Testis: Degeneration/Atrophy, incidence: 2
Beagle dogs; [9]
  Testis weight, % of body weight: −12.18 percent difference from the control group means
  Testis weight, % of brain weight: −16.10 percent difference from the control group means
  Testis weight, absolute value: −20.62 percent difference from the control group means
Beagle dogs; [10]
  Epididymis: Cellular debris, Mild, incidence: 2
  Epididymis: Cellular debris, Minimal, incidence: 2
  Epididymis: Cellular debris, incidence: 4
  Epididymis: Cellularity, decreased; sperm, Marked, incidence: 1
  Epididymis: Cellularity, decreased; sperm, Mild, incidence: 2
  Epididymis: Cellularity, decreased; sperm, Minimal, incidence: 1
  Epididymis: Cellularity, decreased; sperm, incidence: 4
  Testis: Degeneration/Atrophy, Mild, incidence: 1
  Testis: Degeneration/Atrophy, Minimal, incidence: 2
  Testis: Degeneration/Atrophy, Moderate, incidence: 1
  Testis: Degeneration/Atrophy, incidence: 4
Beagle dogs; [11]
  Testis weight, % of body weight: −37.79 percent difference from the control group means
  Testis weight, % of brain weight: −43.49 percent difference from the control group means
  Testis weight, absolute value: −42.84 percent difference from the control group means
Beagle dogs; [12]
  Epididymis: Cellular debris, Mild, incidence: (2) 2 2 2 2
  Epididymis: Cellular debris, incidence: (2) 2 2 2 2
  Epididymis: Cellularity, decreased; sperm, Moderate, incidence: (2) 2 2 2 2
  Epididymis: Cellularity, decreased; sperm, incidence: (2) 2 2 2 2
  Testis: Degeneration/Atrophy, Moderate, incidence: (2) 2 2
  Testis: Degeneration/Atrophy, incidence: (2) 2 2
Beagle dogs; male dogs, 30 and 100 mg/kg/day at terminal euthanasia, persisted at end of recovery at 100 mg/kg/day
  testis microscopic finding: degeneration/atrophy in the testis was noted
IAV
  EC50: > 30000 nM
HBV [1]
  HBV DNA replication: inhibited
  intracellular HBV RNA (pgRNA, preS/S RNA): inhibited
  viral proteins: HBV core and capsid assembly: inhibited
[2]
  EC50: > 100 nM
In vitro
  CC50: > 30000 nM
Sprague Dawley rats; male or female rats, 13-week administration, all doses
  reproductive safety findings: no reproductive safety findings
Sprague Dawley rats; rats
  motor nerve conduction: No differences from baseline or time-matched controls
Sprague Dawley rats; rats, 500 mg/kg, day 70 and day 119, considered non-adverse
  sensory nerve conduction velocity (NCV): NCV delays were noted
HBV [3]; 144 h, 6-day incubation, read-out: HBsAg EC50
  EC50: 2.3 ± 1 nM
HBV [3]; secreted HBV DNA, read-out: HBV DNA EC50 (converted)
  EC50: 0.36 nM
HBV [3]; with 40% human serum, read-out: HBsAg (40% human serum) EC50 (converted)
  EC50: 63 nM
HBV [3]; read-out: HBeAg EC50 (converted)
  EC50: 13.7 nM
HBV genotypes A–H; Huh-7, read-out: HBsAg EC50, HBV transfected Huh-7, range over genotypes A–H
  EC50: 2.1 to 4.5 nM
HBV genotypes A–H; Huh-7, read-out: HBsAg EC50, Huh-7, HBV genotype A
  EC50: 3 ± 0.8 nM
HBV genotypes A–H; Huh-7, read-out: HBsAg EC50, Huh-7, HBV genotype B
  EC50: 2.6 ± 1.4 nM
HBV genotypes A–H; Huh-7, read-out: HBsAg EC50, Huh-7, HBV genotype C
  EC50: 2.3 ± 0.6 nM
HBV genotypes A–H; Huh-7, read-out: HBsAg EC50, Huh-7, HBV genotype D
  EC50: 4.5 ± 2.8 nM
HBV genotypes A–H; Huh-7, read-out: HBsAg EC50, Huh-7, HBV genotype E
  EC50: 2.5 ± 0.9 nM
HBV genotypes A–H; Huh-7, read-out: HBsAg EC50, Huh-7, HBV genotype F
  EC50: 3.3 ± 2.6 nM
HBV genotypes A–H; Huh-7, read-out: HBsAg EC50, Huh-7, HBV genotype H-1
  EC50: 2.4 ± 0.5 nM
HBV genotypes A–H; Huh-7, read-out: HBsAg EC50, Huh-7, HBV genotype H-2
  EC50: 2.1 ± 0.9 nM
[4]
  EC50: 2.5 nM
RSV
  EC50: > 30000 nM
HCMV
  EC50: > 30000 nM
